Data as given in the supplement of paper PMC11208160.

Test: recombinant UMI read abundance after kanamycin selection (control-corrected) (log10(CPM+1)); higher = more efficient recombination; extreme values may be limits of the assay; sequences stand for … in AGTGCAGAGAAAATCGGCCAGTTTTCTCTGCCTGCAGTCCGCATGCCGTGGGACCCCTTGGGTTCTAACCTGTTGCCTAGATTTATGCAGCGGACTGCCTTTCTCCCAAAGTGATAAACCGG…AGGTTGGTTTCACT; site = the 11-nt donor
How it was run: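 For the IS621 bridge recombinase, a pooled Escherichia coli screen tested donor and donor-binding-loop pairs. Cells received the pair library together with a target plasmid encoding a fixed target and T7-inducible recombinase, then went onto IPTG (0.07 mM) plus kanamycin or unselected plates in duplicate. After PCR across the donor–target junction and sequencing, recombinant UMI counts were normalized to CPM, averaged, and scaled by control-derived factors. Each value is given as log10(CPM+1).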
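Also: IS621 bridge recombinase in Escherichia coli cells against a fixed T5 target plasmid.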

Sequence | recombinant UMI read abundance (log10)
CTCTACACATGGACCGGTTTTCCCGGTAATCCGTATTTGCC (site CTCTACACTGG) | 2.37
CTCTACACATGGACCGGTTTTCCCGGTAATCCGTATTTGCC (site CTCTACACTTG) | 2.13
CTCTACCCATGGACCGGTTTTCCCGGTAATCCGTATTTGCT (site CTCTACACTAG) | 0.274
CTCTACCCATGGACCGGTTTTCCCGGTAATCCGTATTTGCT (site CTCTACCCTAG) | 1.74
CTCTACCCATGGACCGGTTTTCCCGGTAATCCGTATTTGCT (site CTCTACGCTAG) | 0.00357
CTCTACCCATGGACCGGTTTTCCCGGTAATCCGTATTTGCT (site CTCTACTCTAG) | 2.87
CTCTAGACATGGACCGGTTTTCCCGGTAATCCGTATTTGCT (site CTCTAAACTAG) | 0.681
CTCTAGACATGGACCGGTTTTCCCGGTAATCCGTATTTGCT (site CTCTACACTAG) | 0.119
CTCTAGACATGGACCGGTTTTCCCGGTAATCCGTATTTGCT (site CTCTAGACTAG) | 0.576
CTCTAGACATGGACCGGTTTTCCCGGTAATCCGTATTTGCT (site CTCTATACTAG) | 0
CTCTCCACATGGACCGGTTTTCCCGGTAATCCGTATTTGCT (site CTCTACACTAG) | 0.902
CTCTCCACATGGACCGGTTTTCCCGGTAATCCGTATTTGCT (site CTCTCCACTAG) | 2.34
CTCTCCACATGGACCGGTTTTCCCGGTAATCCGTATTTGCT (site CTCTGCACTAG) | 0
CTCTCCACATGGACCGGTTTTCCCGGTAATCCGTATTTGCT (site CTCTTCACTAG) | 0.534
CTCTGCACATGGACCGGTTTTCCCGGTAATCCGTATTTGCT (site CTCTACACTAG) | 0.861
CTCTGCACATGGACCGGTTTTCCCGGTAATCCGTATTTGCT (site CTCTCCACTAG) | 0.00325
CTCTGCACATGGACCGGTTTTCCCGGTAATCCGTATTTGCT (site CTCTGCACTAG) | 2.1
CTCTGCACATGGACCGGTTTTCCCGGTAATCCGTATTTGCT (site CTCTTCACTAG) | 0.00616
CTCTTCTCATGGACCGGTTTTCCCGGTAATCCGTATTTGTA (site CTCTTCTCTTA) | 2.1

Sequence | recombinant UMI read abundance (log10)
CTGACTCCATGGACCGGTTTTCCCGGTAATCCGTATTTGGG (site CTGACTCCTCC) | 0.44
CTGCAAACATGGACCGGTTTTCCCGGTAATCCGTATTTGCA (site CTGAAAACTTG) | 0
CTGCAAACATGGACCGGTTTTCCCGGTAATCCGTATTTGCA (site CTGCAAACTTG) | 0.915
CTGCAAACATGGACCGGTTTTCCCGGTAATCCGTATTTGCA (site CTGGAAACTTG) | 0
CTGCAAACATGGACCGGTTTTCCCGGTAATCCGTATTTGCA (site CTGTAAACTTG) | 0
CTGCACCCATGGACCGGTTTTCCCGGTAATCCGTATTTGGC (site CTGCACCCTGC) | 0.469
CTGCAGGCATGGACCGGTTTTCCCGGTAATCCGTATTTGAG (site CTGCAGGCTCT) | 1.5
CTGCATGCATGGACCGGTTTTCCCGGTAATCCGTATTTGGT (site ATGCATGCTAC) | 0.0144
CTGCATGCATGGACCGGTTTTCCCGGTAATCCGTATTTGGT (site CTGCATGCTAC) | 1.57
CTGCATGCATGGACCGGTTTTCCCGGTAATCCGTATTTGGT (site GTGCATGCTAC) | 0.0408
CTGCATGCATGGACCGGTTTTCCCGGTAATCCGTATTTGGT (site TTGCATGCTAC) | 0.0633
CTGCCAACATGGACCGGTTTTCCCGGTAATCCGTATTTGAA (site CTGCCAACTTT) | 0.912
CTGCCGGCATGGACCGGTTTTCCCGGTAATCCGTATTTGCA (site CTGCCGGCTTG) | 2.01
CTGCCTACATGGACCGGTTTTCCCGGTAATCCGTATTTGAG (site CTACCTACTCT) | 1.04
CTGCCTACATGGACCGGTTTTCCCGGTAATCCGTATTTGAG (site CTCCCTACTCT) | 0.00401
CTGCCTACATGGACCGGTTTTCCCGGTAATCCGTATTTGAG (site CTGCCTACTCT) | 1.03
CTGCCTACATGGACCGGTTTTCCCGGTAATCCGTATTTGAG (site CTTCCTACTCT) | 0.12
CTGCGAACATGGACCGGTTTTCCCGGTAATCCGTATTTGCA (site CTGCGAACTTG) | 1.38
CTGCGGTCATGGACCGGTTTTCCCGGTAATCCGTATTTGTC (site CTGCGGTCTGA) | 2.1
